Activity calls are given as the source filed them. The calls are words filed in the database; no cut-off is given here.

Data set [1] relates to HepG2. The data set is described as follows: Stimulation of glucose consumption in palmitate-induced insulin-resistant human HepG2 cells at 12.5 uM incubated for 24 hrs by glucose oxidase based assay relative to palmitate. The format is functional.
The test system of data set [2] is HepG2. The data set is described as follows: Stimulation of glucose consumption in palmitate-induced insulin-resistant human HepG2 cells at 12.5 uM incubated for 24 hrs by glucose oxidase based assay. It counts as functional, cell-based.
The target of data set [3] is T1, AMP-activated protein kinase, AMPK (Homo sapiens) (UniProt P54646+O43741+P54619+Q9UGJ0+Q9Y478+Q13131+Q9UGI9). The data set can be described thus: Activation of AMPK in palmitate-induced insulin-resistant human HepG2 cells assessed as reduction in PEPCK mRNA expression at 12.5 uM incubated for 24 hrs by real-time PCR method. The format is cell-based.
Data set [4] deals with T1, AMP-activated protein kinase, AMPK (Homo sapiens). The data set can be described thus: Activation of AMPK in palmitate-induced insulin-resistant human HepG2 cells assessed as increase in AMPK phosphorylation at 12.5 uM incubated for 24 hrs by Western blot method. The format is cell-based.
Data set [5] has the same target. The data set can be described thus: Activation of AMPK in palmitate-induced insulin-resistant human HepG2 cells assessed as reduction in GLUT2 mRNA expression at 12.5 uM incubated for 24 hrs by real-time PCR method. The format is cell-based. A general note: In qPCR the cycle at which signal appears reflects the starting amount.
For data set [6] the target is unchanged. The data set can be described thus: Activation of AMPK in palmitate-induced insulin-resistant human HepG2 cells assessed as reduction in G6Pase mRNA expression at 12.5 uM incubated for 24 hrs by real-time PCR method. The format is cell-based.
Data set [7] shares this target. The data set can be described thus: Activation of AMPK in palmitate-induced insulin-resistant human HepG2 cells assessed as reduction in G6Pase mRNA expression at 12.5 uM incubated for 24 hrs after 1 hr pre-incubation of cells with 10 uM AMPK inhibitor compound C by real-time PCR method. The format is cell-based.
The target is the same in data set [8]. The data set can be described thus: Activation of AMPK in palmitate-induced insulin-resistant human HepG2 cells assessed as reduction in PEPCK mRNA expression at 12.5 uM incubated for 24 hrs after 1 hr pre-incubation of cells with 10 uM AMPK inhibitor compound C by real-time PCR method. The format is cell-based.
Data set [9] has the same target. The data set can be described thus: Activation of AMPK in palmitate-induced insulin-resistant human HepG2 cells assessed as reduction in GLUT2 mRNA expression at 12.5 uM incubated for 24 hrs after 1 hr pre-incubation of cells with 10 uM AMPK inhibitor compound C by real-time PCR method. It counts as cell-based.
The subject of data set [10] is HepG2. The data set can be described thus: Cytotoxicity in palmitate-induced insulin-resistant human HepG2 cells assessed as reduction in cell viability at 12.5 uM incubated for 24 hrs by MTT assay. The format is cell-based. The conditions noted are these: hepg2, 24 h. A general note: Tetrazolium assays rely on reduction of a dye to a coloured formazan, in cell work by metabolically active cells.

In data set [11] the target is RAC-alpha serine/threonine-protein kinase (Homo sapiens) (UniProt P31749). The data set can be described thus: Activation of AKT in palmitate-induced insulin-resistant human HepG2 cells assessed as reduction in GLUT2 mRNA expression at 12.5 uM incubated for 24 hrs after 1 hr pre-incubation of cells with 0.5 uM AKT inhibitor […] by real-time PCR method. It counts as cell-based.

Data set [12] relates to HepG2. The data set is described as follows: Cytotoxicity in human HepG2 cells assessed as reduction in cell viability up to 12.5 uM incubated for 24 hrs by MTT assay. It counts as cell-based. The conditions noted are these: hepg2, 24 h.
Data set [13] addresses RAC-alpha serine/threonine-protein kinase (Homo sapiens) (UniProt P31749). The data set can be described thus: Activation of AKT in palmitate-induced insulin-resistant human HepG2 cells assessed as increase in AKT phosphorylation at 12.5 uM incubated for 24 hrs by Western blot method. The format is cell-based. On the technique in general: A western blot detects proteins with antibodies after separation by electrophoresis.

Data set [14] is described as follows: Cytotoxicity in human HepG2 cells assessed as cell viability at 25 uM incubated for 24 hrs by MTT assay. It counts as cell-based. The conditions noted are these: read-out: Activity.
The test system of data set [15] is HepG2. The data set is described as follows: Cytotoxicity in human HepG2 cells assessed as reduction in cell viability at 3.125 to 50 uM incubated for 24 hrs by MTT assay. The format is cell-based. The conditions noted are these: hepg2, 24 h.
A short description of data set [16]: Cytotoxicity in human HepG2 cells assessed as cell viability at 50 uM incubated for 24 hrs by MTT assay. The format is cell-based. Particulars: read-out: Activity.
The target of data set [17] is RAC-alpha serine/threonine-protein kinase (Homo sapiens) (UniProt P31749). The data set is described as follows: Activation of AKT in palmitate-induced insulin-resistant human HepG2 cells assessed as reduction in PEPCK mRNA expression at 12.5 uM incubated for 24 hrs after 1 hr pre-incubation of cells with 0.5 uM AKT inhibitor […] by real-time PCR method. It counts as cell-based.

For data set [18] the target is unchanged. The data set is described as follows: Activation of AKT in palmitate-induced insulin-resistant human HepG2 cells assessed as reduction in GLUT2 mRNA expression at 12.5 uM incubated for 24 hrs after 1 hr pre-incubation of cells with 10 uM AMPK inhibitor compound C by real-time PCR method. The format is cell-based.
Data set [19] shares this target. The data set can be described thus: Activation of AKT in palmitate-induced insulin-resistant human HepG2 cells assessed as reduction in G6Pase mRNA expression at 12.5 uM incubated for 24 hrs after 1 hr pre-incubation of cells with 0.5 uM AKT inhibitor […] by real-time PCR method. The format is cell-based.
Data set [20] shares this target. The data set can be described thus: Activation of AKT in palmitate-induced insulin-resistant human HepG2 cells assessed as reduction in G6Pase mRNA expression at 12.5 uM incubated for 24 hrs after 1 hr pre-incubation of cells with 10 uM AMPK inhibitor compound C by real-time PCR method. The format is cell-based.
Data set [21] shares this target. The data set is described as follows: Activation of AKT in palmitate-induced insulin-resistant human HepG2 cells assessed as reduction in PEPCK mRNA expression at 12.5 uM incubated for 24 hrs after 1 hr pre-incubation of cells with 10 uM AMPK inhibitor compound C by real-time PCR method. The format is cell-based.

Sequence of RAC-alpha serine/threonine-protein kinase (Homo sapiens) (P31749 whole entry): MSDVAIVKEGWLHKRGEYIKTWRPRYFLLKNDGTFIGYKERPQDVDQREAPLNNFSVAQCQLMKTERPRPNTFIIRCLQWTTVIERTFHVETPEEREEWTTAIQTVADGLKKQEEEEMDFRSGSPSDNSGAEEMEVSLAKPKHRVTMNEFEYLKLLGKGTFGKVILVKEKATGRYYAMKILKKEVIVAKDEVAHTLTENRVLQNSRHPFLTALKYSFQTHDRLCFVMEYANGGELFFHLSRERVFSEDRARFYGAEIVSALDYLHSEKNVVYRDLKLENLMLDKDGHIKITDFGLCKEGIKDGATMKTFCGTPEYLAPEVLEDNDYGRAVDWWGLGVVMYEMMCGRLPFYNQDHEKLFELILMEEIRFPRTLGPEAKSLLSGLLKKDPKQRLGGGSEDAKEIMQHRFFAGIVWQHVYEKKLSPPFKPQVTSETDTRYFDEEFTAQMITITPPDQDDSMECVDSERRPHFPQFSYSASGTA

`CN(CCOc1ccc(CC2SC(=O)NC2=O)cc1)c1ccccn1` (configuration not stated) [ROSIGLITAZONE] had an Activity in the data set on HepG2 [1] of 7%. In addition, the result (in the data set with HepG2 [2]; in data set [3]; in data set [4]; in data set [5]; in data set [6]) was Active.

For the compound `O=c1cc(-c2ccccc2)oc2cc(O)c(O)c(O)c12` [BAICALEIN], the result in data set [7], in data set [8] and in data set [9] was inactive. The Activity result with HepG2 [10] and with HepG2 [12] was “Non-Toxic” in each case. Moreover, the result (with HepG2 [2]; in data set [3]; in data set [11]; in data set [4]; in data set [5]; in data set [6]) was Active. In addition, the outcome in data set [13] was Active.

In the case of `O=C(O)[C@H]1O[C@@H](Oc2cc3oc(-c4ccccc4)cc(=O)c3c(O)c2O)[C@H](O)[C@@H](O)[C@@H]1O` [BAICALIN], the viability at 24 h, 25 µM in data set [14] was 85%. Also, the result in data set [8] and in [9] was inactive. For the same compound, the Activity entry in the data set with HepG2 [10] and with HepG2 [15] was “Non-Toxic” throughout. For the same compound, the result (in the data set on HepG2 [2]; in [3]; in [4]; in data set [5]; in [6]) was Active. Further, in data set [16], the viability at 24 h, 50 µM is 85%.

For `COc1c(O[C@@H]2O[C@H](C(=O)O)[C@@H](O)[C@H](O)[C@H]2O)cc2oc(-c3ccccc3)cc(=O)c2c1O`, the Activity result in the data set on HepG2 [10] and in the data set with HepG2 [12] was “Non-Toxic” each time. Besides, the outcome in the data set on HepG2 [2] was inactive. Moreover, the result in data set [11] was Active.

Take `O=C(O)[C@H]1O[C@@H](Oc2cc3oc(-c4ccccc4)cc(=O)c3c(O)c2O[C@@H]2O[C@H](CO)[C@@H](O)[C@H](O)[C@H]2O)[C@H](O)[C@@H](O)[C@@H]1O`: the result in [17] and in data set [19] was inactive. The Activity result in the data set on HepG2 [10] and with HepG2 [12] was “Non-Toxic” throughout. The outcome (in data set [18]; with HepG2 [2]; in data set [3]; in data set [11]; in [4]; in data set [20]) was Active. The outcome in data set [5], in data set [6], in data set [21] and in [13] was Active.

The values above are taken from ChEMBL document CHEMBL4130491, “Baicalin and its metabolites suppresses gluconeogenesis through activation of AMPK or AKT in insulin resistant HepG-2 cells” (Eur J Med Chem, 2017).
